Measured values published in patent US20260364184A1, “COMPOUND BASED ON OXOISOINDOLINYL-SUBSTITUTED TETRAHYDROPYRIMIDINE-DIONE AND USE THEREOF” (GLUETACS THERAPEUTICS (SHANGHAI) CO., LTD., priority 2023, published 2026).

Experiments:
Type in all cases: cell-based
[1] = tested on: Human acute lymphocytic leukemia T lymphocytes cell line (CCRF-CEM); assay: Inhibition of CCRF-CEM cell proliferation (CellTiter luminescent viability); details: Homo sapiens, 96 h, Table IL3, BCR-ABL inhibitor-based; for inhibition at 0.01 µM: 10 nM, read-out: Inhibition Rate at 10 nM (%); for inhibition at 0.5 µM: 500 nM, read-out: Inhibition Rate at 500 nM (%)
[2] = tested on: Human myeloid monocytic leukemia cell line (MV-4-11); assay: Inhibition of MV-4-11 cell proliferation (CellTiter luminescent viability); details: Homo sapiens, MV4-11, Table IL2, BCR-ABL inhibitor-based, 96 hours; for inhibition at 0.01 µM: MV-4-11, 10 nM, read-out: Inhibition Rate at 10 nM (%); for inhibition at 0.5 µM: MV-4-11, 500 nM, read-out: Inhibition Rate at 500 nM (%)
Outline: (§1)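 Cells are seeded in 96-well plates, cultured at 37 °C, 5% CO2, and treated next day with 5-fold serial compound dilutions (stock series from 2000 μM; 0.5 μL into 100 μL medium). Viability is read by CellTiter-Meiluncell luminescence after the set exposure, and IC50 is taken from growth-inhibition curves.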

[3] = molecular target: T1, C-ABL (Homo sapiens, UniProt P00519); assay: Western blot degradation of C-ABL; details: K562 Cell; 24 hours
T1 construct: K562 also holds p210 BCR-ABL (BCR P11274 fused to ABL1)
Experimental: Conventional Western blot assay was performed to evaluate the effects of the compounds of the present disclosure on the expression of target proteins in cells.
(1) Cell Seeding and Protein Harvesting: The selected cells were processed according to the cell seeding procedure and protein harvesting procedure in Table II-2.
(2) To the collected supernatant, 5×SDS sample loading buffer was added, followed by denaturation at 95 °C for 5 minutes. The denatured samples were then separated by SDS-PAGE electrophoresis on a polyacrylamide gel. Proteins were transferred to a nitrocellulose membrane (0.45 μm NC membrane), blocked with blocking buffer at room temperature for 1 hour, and subjected to antibody incubation and development procedures according to the antibody manufacturer's instructions (Cell Signaling Technology).
Half-Maximal Degradation Concentration value (the drug concentration required for degrading proteins by 50%, abbreviated as DC50) reads method: comparing the grayscale values of Western blot bands from drug-treated samples with those from blank DMSO-treated controls, and identifying the drug concentration range at which the grayscale value is half that of the DMSO-treated control bands.
DC50 values can be calculated using ImageJ software to measure grayscale values of Western blot bands from drug-treated samples. The concentration-response curve is fitted to estimate the drug concentration corresponding to half the grayscale value.
Target protein remaining (%) refers to the percentage of target protein remaining in cells after treatment with protein degrader compounds.
Calculation method for target protein remaining (%): Use ImageJ software to measure grayscale values of Western blot bands from drug (protein degrader)-treated samples. The grayscale value of drug-treated bands is divided by that of internal control protein bands, and the resulting quotient is normalized to obtain the relative percentage of remaining target protein after protein degrader treatment.
Target protein degradation rate (%)=1−target protein remaining (%).

[4] = tested on: Human Multiple myeloma cell line (MM.1S); assay: Inhibition of MM.1S cell proliferation (CellTiter luminescent viability); details: Homo sapiens, MM1.S, Table IL1, BCR-ABL inhibitor-based, 96 hours; for inhibition at 0.01 µM: 10 nM, read-out: Inhibition Rate at 10 nM (%); for inhibition at 0.5 µM: 500 nM, read-out: Inhibition Rate at 500 nM (%)
Outline: as §1

T1 sequence (P00519 whole entry, the tested form may be a part): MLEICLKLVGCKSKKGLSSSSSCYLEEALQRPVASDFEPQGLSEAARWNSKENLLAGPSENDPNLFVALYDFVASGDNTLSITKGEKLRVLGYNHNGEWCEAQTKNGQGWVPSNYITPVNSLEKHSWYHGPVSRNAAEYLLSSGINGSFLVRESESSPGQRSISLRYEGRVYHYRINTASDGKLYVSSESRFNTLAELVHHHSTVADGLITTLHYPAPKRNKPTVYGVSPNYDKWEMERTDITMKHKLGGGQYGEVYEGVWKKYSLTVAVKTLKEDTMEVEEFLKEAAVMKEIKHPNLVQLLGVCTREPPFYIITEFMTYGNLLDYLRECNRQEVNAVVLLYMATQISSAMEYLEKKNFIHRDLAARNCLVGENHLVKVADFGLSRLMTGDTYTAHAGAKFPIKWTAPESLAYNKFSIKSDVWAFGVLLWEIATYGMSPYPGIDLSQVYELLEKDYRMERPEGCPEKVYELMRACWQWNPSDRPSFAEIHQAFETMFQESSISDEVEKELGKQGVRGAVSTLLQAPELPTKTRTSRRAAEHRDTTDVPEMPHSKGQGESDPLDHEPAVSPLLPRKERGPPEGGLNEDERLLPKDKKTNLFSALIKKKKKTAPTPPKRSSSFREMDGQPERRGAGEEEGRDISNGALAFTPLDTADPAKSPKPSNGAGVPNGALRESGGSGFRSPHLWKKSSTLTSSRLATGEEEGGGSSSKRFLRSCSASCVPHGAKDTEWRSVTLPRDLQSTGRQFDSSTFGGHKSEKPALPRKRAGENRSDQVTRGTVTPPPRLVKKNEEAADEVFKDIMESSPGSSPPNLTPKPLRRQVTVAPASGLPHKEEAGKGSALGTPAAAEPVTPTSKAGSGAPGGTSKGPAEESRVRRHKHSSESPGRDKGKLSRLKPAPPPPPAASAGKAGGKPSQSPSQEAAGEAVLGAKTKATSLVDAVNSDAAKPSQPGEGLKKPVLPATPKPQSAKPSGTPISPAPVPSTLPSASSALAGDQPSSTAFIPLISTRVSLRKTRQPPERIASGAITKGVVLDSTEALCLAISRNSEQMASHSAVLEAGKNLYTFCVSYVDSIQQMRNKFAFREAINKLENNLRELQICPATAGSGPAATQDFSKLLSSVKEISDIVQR
T1 sequence (Q96SW2 whole entry partner, the tested form may be a part): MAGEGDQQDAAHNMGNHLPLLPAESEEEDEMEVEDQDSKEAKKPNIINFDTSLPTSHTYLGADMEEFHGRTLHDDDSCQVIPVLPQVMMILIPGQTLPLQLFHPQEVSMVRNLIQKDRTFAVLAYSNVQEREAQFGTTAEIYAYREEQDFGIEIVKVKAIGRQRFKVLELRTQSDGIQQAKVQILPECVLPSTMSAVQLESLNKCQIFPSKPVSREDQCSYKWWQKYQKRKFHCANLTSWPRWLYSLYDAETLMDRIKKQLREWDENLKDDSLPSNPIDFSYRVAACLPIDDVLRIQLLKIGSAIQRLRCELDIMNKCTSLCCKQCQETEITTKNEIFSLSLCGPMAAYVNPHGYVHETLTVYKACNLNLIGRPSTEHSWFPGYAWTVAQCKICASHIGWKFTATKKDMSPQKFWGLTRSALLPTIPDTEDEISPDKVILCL

| SMILES | inhibition at 0.01 µM [1] [%] | inhibition at 0.5 µM [1] [%] | inhibition at 0.01 µM [2] [%] | inhibition at 0.5 µM [2] [%] | Degradation of substrate protein C-ABL; BCR-ABL (substrate protein remaining %) [3] | inhibition at 0.01 µM [4] [%] | inhibition at 0.5 µM [4] [%] |
| --- | --- | --- | --- | --- | --- | --- | --- |
| Cc1ccc(C(=O)Nc2ccc(CN3CCN(Cc4ccc5c(c4)CN(N4CCC(=O)NC4=O)C5=O)CC3)c(C(F)(F)F)c2)cc1C#Cc1cnc2cccnn12 [GT-08216, N-(4-((4-((2-(2,4-dioxotetrahydropyrimidin-1(2H)-yl)-1-oxoisoindolin-5-yl)methyl)piperazin-1-yl)methyl)-3-(trifluoromethyl)phenyl)-3-(imidazo[1,2-b]pyridazin-3-ylethynyl)-4-methylbenzamide] | 20 to 30 | 80 to 100 | 80 to 100 | 80 to 100 | A (0%≤substrate protein remaining %≤80%) | 20 to 30 | 80 to 100 |
| Cc1ccc(C(=O)Nc2ccc(CN3CCN(CC4CCN(c5ccc6c(c5)C(=O)N(N5CCC(=O)NC5=O)C6=O)CC4)CC3)c(C(F)(F)F)c2)cc1C#Cc1cnc2cccnn12 [GT-08352, N-(4-((4-((1-(2-(2,4-dioxotetrahydropyrimidin-1(2H)-yl)-1,3-dioxoisoindolin-5-yl)piperidin-4-yl)methyl)piperazin-1-yl)methyl)-3-(trifluoromethyl)phenyl)-3-(imidazo[1,2-b]pyridazin-3-ylethynyl)-4-methylbenzamide] | 15 to 20 | 20 to 30 | 30 to 40 | 80 to 100 | A (0%≤substrate protein remaining %≤80%) | – | – |
| O=C1CCN(N2C(=O)c3ccc(N4CCC(CN5CCN(c6ncc(C(=O)Nc7ccc(OC(F)(F)Cl)cc7)cc6-c6cc[nH]n6)CC5)CC4)cc3C2=O)C(=O)N1 [GT-08356, N-(4-(chlorodifluoromethoxy)phenyl)-6-(4-((1-(2-(2,4-dioxotetrahydropyrimidin-1(2H)-yl)-1,3-dioxoisoindolin-5-yl)piperidin-4-yl)methyl)piperazin-1-yl)-5-(1H-pyrazol-3-yl)nicotinamide] | – | – | – | – | A (0%≤substrate protein remaining %≤80%) | 20 to 30 | 30 to 40 |
| O=C1CCN(N2C(=O)c3cccc(N4CCC(CN5CCC(N6CCN(c7ncc(C(=O)Nc8ccc(OC(F)(F)Cl)cc8)cc7-c7cc[nH]n7)CC6)CC5)CC4)c3C2=O)C(=O)N1 [GT-08359, N-(4-(chlorodifluoromethoxy)phenyl)-6-(4-(1-((1-(2-(2,4-dioxotetrahydropyrimidin-1(2H)-yl)-1,3-dioxoisoindolin-4-yl)piperidin-4-yl)methyl)piperidin-4-yl)piperazin-1-yl)-5-(1H-pyrazol-3-yl)nicotinamide] | 15 to 20 | 20 to 30 | – | – | A (0%≤substrate protein remaining %≤80%) | 10 to 15 | 30 to 40 |
| O=C1CCN(N2C(=O)c3ccc(N4CCC(CN5CCN(C6CCN(c7ncc(C(=O)Nc8ccc(OC(F)(F)Cl)cc8)cc7-c7cc[nH]n7)CC6)CC5)CC4)cc3C2=O)C(=O)N1 [GT-08360, N-(4-(chlorodifluoromethoxy)phenyl)-6-(4-(4-((1-(2-(2,4-dioxotetrahydropyrimidin-1(2H)-yl)-1,3-dioxoisoindolin-5-yl)piperidin-4-yl)methyl)piperazin-1-yl)piperidin-1-yl)-5-(1H-pyrazol-3-yl)nicotinamide] | 20 to 30 | 30 to 40 | – | – | A (0%≤substrate protein remaining %≤80%) | 5 to 10 | 20 to 30 |
| O=C1CCN(N2C(=O)c3cccc(N4CCC(CN5CCN(C6CCN(c7ncc(C(=O)Nc8ccc(OC(F)(F)Cl)cc8)cc7-c7cc[nH]n7)CC6)CC5)CC4)c3C2=O)C(=O)N1 [GT-08361, N-(4-(chlorodifluoromethoxy)phenyl)-6-(4-(4-((1-(2-(2,4-dioxotetrahydropyrimidin-1(2H)-yl)-1,3-dioxoisoindolin-4-yl)piperidin-4-yl)methyl)piperazin-1-yl)piperidin-1-yl)-5-(1H-pyrazol-3-yl)nicotinamide] | 20 to 30 | 20 to 30 | – | – | A (0%≤substrate protein remaining %≤80%) | – | – |
